Data on seven molecules can be found in ChEMBL document CHEMBL1201862, “PubChem BioAssay data set” (2004).

Holding throughout (experiment): NCI anticancer screen, dose series, 48 h
For assay [1], the system named is CAKI-1.
Assay [2] concerns HCT-116.
For assay [3], the system named is HCT-15.
Assay [4] relates to HOP-92.
The subject of assay [5] is IGROV-1.
For assay [6], the system named is K562.
The subject of assay [7] is KM12.
The subject of assay [8] is M14.
Assay [9] has as its system MDA-MB-435.
The test system of assay [10] is NCI-H460.
Assay [11] deals with OVCAR-3.
Assay [12] deals with PC-3.
In assay [13] the test system is RPMI-8226.
Assay [14] deals with SF-268.
Assay [15] has as its system SK-MEL-5.
Assay [16] has as its system SK-OV-3.
The test system of assay [17] is SN12C.
Assay [18] relates to SNB-75.
Assay [19] concerns SW-620.
Assay [20] deals with U-251.

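These data come from cells grown in 96-well plates and exposed to compound for 48 hours at five concentrations. The concentration for 50% growth inhibition is given as GI50.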 Calls of active or inactive are those of the source. No stated cut-off is given here; in the data, active = GI50 up to about 1.1 µM and inactive = higher. Some results are limits rather than exact numbers.

On to `CCOC(=O)C(NC(=O)c1cccc(Cl)c1)(Nc1ccc(S(=O)(=O)Nc2cc(C)on2)cc1)C(F)(F)F` (stereo not given), for which the GI50 is > 100 µM (inactive) in assay [1]; > 100 µM (inactive) in [2]; over 100 µM in assay [3]; > 100 µM (inactive) in assay [4]; > 100 µM (inactive) in assay [5]; > 100 µM (inactive) in [6]. For the same molecule, the GI50 in [7], in assay [8], in assay [9], in [10], in assay [11] and in [12] was > 100 µM (inactive) each time. Also, the GI50 in [13], in assay [14], in assay [15], in assay [16], in assay [17] and in assay [18] was > 100 µM (inactive) in each case. Further, the GI50 in assay [19] and in [20] was > 100 µM (inactive) each time.

On to `Fc1cccc(C2ON=C(c3ccccc3)N2C23CC4CC(CC(C4)C2)C3)c1` (stereo not given), for which the GI50 in assay [1] was > 10 µM (inactive); in assay [2], > 10 µM (inactive); in assay [3] it was over 10 µM; in assay [4], > 10 µM (inactive); in assay [5], > 10 µM (inactive); in assay [6], > 10 µM (inactive). Besides, the GI50 in assay [7], in [8], in [9], in assay [10], in assay [11] and in [12] was > 10 µM (inactive) each time. For the same molecule, the GI50 in assay [13] was 8.77 µM (inactive); in [14], > 10 µM (inactive); in assay [15], > 10 µM (inactive); in assay [16], > 10 µM (inactive); in assay [17], > 10 µM (inactive); in [18], > 10 µM (inactive). Moreover, the GI50 in assay [19] and in [20] was > 10 µM (inactive) each time.

Regarding `COc1cccc(C(=O)C#Cc2cnc(OC)nc2OC)c1`, the GI50 in [1] was 1.99 µM (inactive); in assay [2] it was 3.18 µM (inactive); in assay [3] it was 0.2 µM; in [4] it was 2.09 µM (inactive); in assay [5] it was 0.653 µM (active); in [6] it was 0.356 µM (active). Besides, the GI50 in assay [7] is 3.94 µM (inactive); in [8], 1.21 µM (inactive); in [9] it was 1.86 µM (inactive); in assay [10] it was 9.08 µM (inactive); in [11] it was 1.81 µM (inactive); in [12] it was 1.37 µM (inactive). The GI50 in assay [13] is 2.01 µM (inactive); in assay [14], 2.49 µM (inactive); in assay [15] it was 1.24 µM (inactive); in assay [16], 18.1 µM (inactive); in assay [17] it was 0.753 µM (active); in [18] it was 2.26 µM (inactive). The results for the GI50 in assay [19] and in [20] were 0.504 µM (active) and 2.84 µM (inactive), respectively.

Regarding `C[C@]12CCC(=O)C=C1CC[C@@H]1[C@@H]2[C@@H](O)C[C@@]2(C)[C@H]1CC[C@]2(O)C(=O)COC(=O)C1CCCC1`, the GI50 was > 100 µM (inactive) in assay [1]; > 100 µM (inactive) in [2]; over 100 µM in assay [3]; > 100 µM (inactive) in assay [4]; > 100 µM (inactive) in assay [5]; > 100 µM (inactive) in assay [6]. Besides, the GI50 in [7] was > 100 µM (inactive); in assay [8], > 100 µM (inactive); in assay [9], > 100 µM (inactive); in [10] it was 87.3 µM (inactive); in assay [11], > 100 µM (inactive); in assay [12] it was > 100 µM (inactive). Besides, the GI50 in assay [13] was 1.63 µM (inactive); in assay [14], > 100 µM (inactive); in assay [15] it was > 100 µM (inactive); in assay [16] it was > 100 µM (inactive); in assay [17] it was > 100 µM (inactive); in assay [18], > 100 µM (inactive). The GI50 in [19] and in assay [20] was > 100 µM (inactive) in each case.

As for `CCCCCCCCCCCCCCCCP(=O)([O-])OCC[N+](C)(C)C`, the GI50 is 12.1 µM (inactive) in assay [1]; 14.8 µM (inactive) in [2]; 6.56 µM in assay [3]; 15 µM (inactive) in [4]; 1.56 µM (inactive) in assay [5]; 19 µM (inactive) in assay [6]. The GI50 in [7] is 2.61 µM (inactive); in assay [8], 15.3 µM (inactive); in [9], 17.3 µM (inactive); in assay [10], 5.75 µM (inactive); in [11] it was 17.1 µM (inactive); in assay [12], 1.71 µM (inactive). Further, the GI50 is 15.3 µM (inactive) in assay [13]; 17.6 µM (inactive) in assay [14]; 16 µM (inactive) in assay [15]; 7.4 µM (inactive) in assay [16]; 12.9 µM (inactive) in assay [17]; 14.8 µM (inactive) in [18]. For the same molecule, the results for the GI50 in assay [19] and in assay [20] were 14.5 µM (inactive) and 16.7 µM (inactive), respectively.

Turning to `CC(C)(C)OC(=O)NC(CSSCC(NC(=O)OC(C)(C)C)C(=O)O)C(=O)O` (stereo not given), the GI50 in assay [1] is > 100 µM (inactive); in assay [2], > 100 µM (inactive); in assay [3] it was over 100 µM; in assay [4], > 100 µM (inactive); in assay [5], > 100 µM (inactive); in assay [6] it was > 100 µM (inactive). Besides, the GI50 in [7], in [8], in [9], in assay [10], in assay [11] and in assay [12] was > 100 µM (inactive) throughout. Moreover, the GI50 in assay [13], in [14], in assay [15], in [16], in [17] and in assay [18] was > 100 µM (inactive) in each case. Moreover, the GI50 in assay [19] and in assay [20] was > 100 µM (inactive) each time.

On to `S=C(N/N=C/c1ccccn1)N1CCCCCC1`, for which the GI50 in assay [1] is < 0.0423 µM (active); in [2], < 0.01 µM (active); in assay [3] it was under 0.01 µM; in [4] it was 0.0832 µM (active); in assay [5] it was < 0.01 µM (active); in assay [6] it was < 0.01 µM (active). Moreover, the GI50 in assay [7] is < 0.01 µM (active); in assay [8], < 0.01 µM (active); in [9], 0.148 µM (active); in assay [10] it was < 0.01 µM (active); in assay [11], < 0.01 µM (active); in assay [12], < 0.01 µM (active). The GI50 was < 0.01 µM (active) in assay [13]; < 0.0121 µM (active) in [14]; < 0.0141 µM (active) in [15]; < 0.01 µM (active) in assay [16]; < 0.0192 µM (active) in assay [17]; 0.0783 µM (active) in assay [18]. Further, the GI50 in assay [19] and in assay [20] was < 0.01 µM (active) each time.
